In PubChem BioAssay AID192 (DTP/NCI, 2004):
Several values for one entry are separate records, joined by “and”; a condition that tells them apart may be missing. Equal values may be shown once. Toxic doses and inconclusive results are not listed. How the source made its calls: active means survival T/C of 150% or more; inactive means T/C below 125% in these data.

System: BDF1 mice, B16 melanoma ip, median survival T/C
Experiment: NCI In Vivo Anticancer Drug Screen. Data for tumor model B16 Melanoma (intraperitoneal) in B6D2F1 (BDF1) mice
Conditions: endpoint: median survival time, higher = longer survival
In short: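 Transplantable tumor model; survival or tumor size measured; reported as T/C, treated over vehicle control.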

[1] = dose: 50.0 mg/kg/injection, schedule: Q01DX009 (ip), vehicle: saline with Tween-80
[2] = dose: 100.0 mg/kg/injection, schedule: Q01DX009 (ip), vehicle: saline with Tween-80
[3] = dose: 25.0 mg/kg/injection, schedule: Q01DX009 (ip), vehicle: saline
[4] = dose: 50.0 mg/kg/injection, schedule: Q01DX009 (ip), vehicle: saline
[5] = dose: 100.0 mg/kg/injection, schedule: Q01DX009 (ip), vehicle: saline
[6] = dose: 12.5 mg/kg/injection, schedule: Q01DX009 (ip), vehicle: saline
[7] = dose: 6.25 mg/kg/injection, schedule: Q01DX009 (ip), vehicle: saline with Tween-80
[8] = dose: 12.5 mg/kg/injection, schedule: Q01DX009 (ip), vehicle: saline with Tween-80
[9] = dose: 25.0 mg/kg/injection, schedule: Q01DX009 (ip), vehicle: saline with Tween-80

Measured: T/C

CC(=O)SCC(C)CCl (centres undefined)
inactive: [1] 100 % of control | [2] 100 % of control

CCNCCNC
inactive: [3] 109 % of control | [4] 98 % of control | [5] 86 % of control

COc1cccc(Cc2ccncc2)c1OC
inactive: dose: 25.0 mg/kg/injection, schedule: Q01DX009 (ip), vehicle: water 104 % of control | dose: 50.0 mg/kg/injection, schedule: Q01DX009 (ip), vehicle: water 98 % of control | dose: 100.0 mg/kg/injection, schedule: Q01DX009 (ip), vehicle: water 98 % of control

CC(C)CC(Br)C(=O)NCC(=O)NC(Cc1ccccc1)C(=O)O (centres undefined)
inactive: [1] 97 % of control | [2] 95 % of control | dose: 200.0 mg/kg/injection, schedule: Q01DX009 (ip), vehicle: saline with Tween-80 97 % of control

CCCCCCCCP(=O)(N1CC1C)N1CC1C (centres undefined)
inactive: dose: 3.12 mg/kg/injection, schedule: Q01DX009 (ip), vehicle: saline 101 % of control | dose: 6.25 mg/kg/injection, schedule: Q01DX009 (ip), vehicle: saline 102 % of control | [6] 97 % of control | [3] 102 % of control

C1CC[N-]CC1.C1CC[N-]CC1.C1CC[N-]CC1.C1CC[N-]CC1.N#C[S-].N#C[S-].[Ni]
inactive: dose: 5.0 mg/kg/injection, schedule: Q01DX009 (ip), vehicle: saline with Tween-80 92 % of control | dose: 10.0 mg/kg/injection, schedule: Q01DX009 (ip), vehicle: saline with Tween-80 104 % of control

O=C1c2c(O)cccc2-c2nn(CCNCCO)c3ccc(NCCNCCO)c1c23
active: dose: 2.75 mg/kg/injection, schedule: Q01DX009 (ip), vehicle: water 306 % of control | dose: 5.5 mg/kg/injection, schedule: Q01DX009 (ip), vehicle: water 306 % of control

CN(C)CCOc1ccccc1Cc1ccccc1
inactive: [6] 121 % of control | [3] 106 % of control and 107 % of control | [4] 95 % of control and 100 % of control | [5] 105 % of control | dose: 200.0 mg/kg/injection, schedule: Q01DX009 (ip), vehicle: saline 94 % of control

CCCCOC(=O)/C=C(\Br)C(=O)OCCCC
inactive: [7] 99 % of control and 100 % of control | [8] 98 % of control and 104 % of control | [9] 86 % of control and 98 % of control | [1] 91 % of control | [2] 90 % of control

COc1ccc(NC(=O)Oc2ccc(-c3ccccc3)cc2Br)cc1
inactive: dose: 100.0 mg/kg/injection, schedule: Q01DX009 (ip), vehicle: Klucel (hydroxypropylcellulose) (HPC) 93 % of control | dose: 100.0 mg/kg/injection, schedule: Q04DX003 (ip), vehicle: Klucel (hydroxypropylcellulose) (HPC) 103 % of control | dose: 200.0 mg/kg/injection, schedule: Q01DX009 (ip), vehicle: Klucel (hydroxypropylcellulose) (HPC) 93 % of control | dose: 200.0 mg/kg/injection, schedule: Q04DX003 (ip), vehicle: Klucel (hydroxypropylcellulose) (HPC) 112 % of control | dose: 400.0 mg/kg/injection, schedule: Q01DX009 (ip), vehicle: Klucel (hydroxypropylcellulose) (HPC) 96 % of control | dose: 400.0 mg/kg/injection, schedule: Q04DX003 (ip), vehicle: Klucel (hydroxypropylcellulose) (HPC) 109 % of control

CC1=CC2=C(C=O)C(=O)[C@](C)(O)[C@@H](O)C2=CO1
inactive: [7] 119 % of control | [8] 108 % of control | [9] 122 % of control

CCc1cc2c(cc1C(=O)CBr)C(C)(C)CCC2(C)C
inactive: dose: 3.13 mg/kg/injection, schedule: Q01DX009 (ip), vehicle: saline with Tween-80 100 % of control | [7] 94 % of control | [8] 92 % of control and 99 % of control | [9] 94 % of control

CN(C)CC/C=C1\c2ccccc2C(C)(C)c2ccc(Cl)cc21
inactive: [9] 118 % of control | [1] 92 % of control
